The assay deals with thromboplastin clotting time in human plasma. Briefly: prothrombin time test (thromboplastin clotting time in human plasma). Type of assay: biochemical. To be noted: for plasma prothrombin time: 37° C., human plasma. As to the method: Briefly, to 0.1 ml of each of human plasma, normal saline and thromboplastin was added 0.03 ml of the test compound of the present invention (2 mg/ml in 50 percent methanol). The clotting time was measured at 37° C. with a Fibrometer.
^a Expressed in seconds
^b Concentration of compound tested in micrograms per milliliter of […]

Setting [1] is: 180 micrograms per milliliter of plasma.
Where [2] appears, read: 45 micrograms per milliliter of plasma.
Setting [3] is: 90 micrograms per milliliter of plasma.
Setting [4] is: 22 micrograms per milliliter of plasma.
Where [5] appears, read: 11 micrograms per milliliter of plasma.

Structures are written as SMILES. Counter-ions that a name gives are not always drawn. Where only a bound is given, the exact number is not on record here.

In turn, `CCCCCCCCOc1ccc(CC(CN)c2ccc(-c3ccccc3)cc2)cc1` (racemic) [Example 11, (±)-β-[[4-(Octyloxy)phenyl]methyl][1,1'-biphenyl-4-ethanamine hydrochloride] registered a plasma prothrombin time under setting [1] of 20 s.
As to `CCCCC(CC)COc1ccc(CC(CN)c2ccccc2)cc1.Cl` (stereo not drawn) [Example 3, 4-[(2-Ethylhexyl)oxy]-β-phenylbenzenepropanamine hydrochloride], the prothrombin time runs as follows: (28 micrograms per ml) 16 s; (69 micrograms per ml) 25 s; (139 micrograms per ml) 80 s.
For `CCCCCCCOc1ccc(CC(CN)c2ccccc2)cc1.Cl` (stereo not drawn) [Example 5, 4-(Heptyloxy)-β-phenylbenzenepropanamine hydrochloride], the plasma prothrombin time runs as follows: under setting [2], 25 s; under setting [3], 53 s; under setting [1], 190 s.
As to `Cl.NCC(Cc1ccc(-c2ccccc2)cc1)c1ccccc1` (stereo not drawn) [Example 7, β-Phenyl[1,1'-biphenyl]-4-propanamine hydrochloride], the plasma prothrombin time runs as follows: under setting [4], 25 s; under setting [2], 36 s; under setting [3], 200 s; under setting [1], greater than 300 s.
Turning to `COc1ccc(C(CN)Cc2ccc(-c3ccccc3)cc2)cc1OC` (stereo not drawn) [Example 8, β-(3,4-Dimethoxy)phenyl[1,1'-biphenyl]-4-propanamine hydrochloride], the plasma prothrombin time is, setting by setting: under setting [2], 23 s; under setting [3], 45 s; under setting [1], 130 s.
The molecule `COc1ccc(C(CN)Cc2ccc(-c3ccccc3)cc2)cc1` (stereo not drawn) [Example 9, β-(4-Methoxy)phenyl[1,1'-biphenyl]-4-propanamine] displayed a plasma prothrombin time under setting [1] of 25 s.
The same measure, in the same setting: for `CCCCCCOc1ccc(CC(CN)c2ccc3ccccc3c2)cc1.Cl` (stereo not drawn) [Example 10, β-[[4-(Hexyloxy)phenyl]methyl]-2-naphthaleneethanamine hydrochloride] the value was 60 s.
Regarding `CCCCCOc1ccc(CC(CN)c2ccc(-c3ccccc3)cc2)cc1.Cl` (stereo not drawn) [Example 12, β-[[4-(Pentyloxy)phenyl]methyl][1,1'-biphenyl]-4-ethanamine hydrochloride], the plasma prothrombin time reads like this: under setting [2], 21 s; under setting [3], 33 s; under setting [1], 75 s.
In turn, `CCCCCCCOc1ccc(CC(CN)c2ccc(C(CN)Cc3ccc(OCCCCCCC)cc3)cc2)cc1.Cl.Cl` (stereo not drawn) [Example 13, β,β'-Bis[[4-(heptyloxy)phenyl]methyl]-1,4-benzenediethanamine dihydrochloride] returned a plasma prothrombin time under setting [1] of 200 s.
Under setting [1], `CC(C)c1ccc(CC(CN)c2ccccc2)cc1.Cl` (stereo not drawn) [Example 14, 4-(1-Methylethyl)-β-phenylbenzenepropanamine hydrochloride] had a plasma prothrombin time of 101 s.
`CCCCCOc1ccc(CC(CN)c2ccc(OC)c(OC)c2)cc1` (stereo not drawn) [Example 15, 4-(Pentyloxy)-β-3,4-(dimethoxy)phenylbenzenepropanamine]: the plasma prothrombin time was found to be 21 s under setting [2], 30 s under setting [3] and 80 s under setting [1].
As to `CCCCCCCCOc1ccc(CC(CN)c2ccc(OC)c(OC)c2)cc1` (stereo not drawn) [Example 17, 4-(Octyloxy)-β-(3,4-dimethoxy)phenylbezenenepropanamine hydrochloride], the plasma prothrombin time by setting is: under setting [4], 21 s; under setting [2], 48 s; under setting [3], 81 s; under setting [1], 240 s.
Regarding `CCCCCCCCOc1ccc(CC(CN)c2cc(OC)c(OC)c(OC)c2)cc1` (stereo not drawn) [Example 18, 4-(Octyloxy)-β-(3,4,5-trimethoxy)phenylbenzenepropanamine hydrochloride], the plasma prothrombin time under setting [1] amounted to 125 s.
In turn, `CCCCCOc1ccc(CC(CN)c2ccc(OC)c(OC)c2OC)cc1` (stereo not drawn) [Example 19, 4-(Pentyloxy)-β-(2,3,4-trimethoxy)phenylbenzenepropanamine hydrochloride] showed a plasma prothrombin time under setting [1] of 174 s.
For `CCCCCCCOc1ccc(CC(CN)c2ccc(OC)c(OC)c2)cc1` (stereo not drawn) [Example 20, 4-(Heptyloxy)-β-(3,4-dimethoxy)phenylbenzenepropanamine], the plasma prothrombin time is 36 s under setting [2], 74 s under setting [3] and greater than 200 s under setting [1].
Consider `COc1ccc(C(CN)Cc2ccc(OC)c3ccccc23)cc1OC` (stereo not drawn) [Example 23, β(3,4-Dimethoxy)phenyl-1-(4-methoxy)naphthalenepropanamine hydrochloride], for which the plasma prothrombin time under setting [1] stood at 101 s.
`COc1ccc(C(CN)Cc2cccc3ccccc23)cc1` (stereo not drawn) [Example 24, β-(4-Methoxy)phenyl-1-naphthalenepropanamine] gave a plasma prothrombin time under setting [2] of 22 s, a plasma prothrombin time under setting [3] of 28 s and a plasma prothrombin time under setting [1] of 48 s.
The matching figures for `COc1cccc(C(CN)Cc2ccc3ccccc3c2)c1OC` (stereo not drawn) [Example 25, β-(2,3-Dimethoxyphenyl)-2-naphthalenepropanamine]: 22 s, 29 s and 50 s.
Turning to `CCCCCCOc1ccc(CC(CNCC)c2ccccc2)cc1` (stereo not drawn) [Example 28, N-Ethyl-4-(hexyloxy)-β-phenylbenzenepropanamine], the plasma prothrombin time under setting [4] came out at 17 s, the plasma prothrombin time under setting [2] came to 23 s, the plasma prothrombin time under setting [3] was 35 s and the plasma prothrombin time under setting [1] stood at 110 s.
On to `CCCCCCOc1ccc(CC(CNC)c2ccccc2)cc1` (stereo not drawn) [Example 29, N-Methyl-4-(hexyloxy)-β-phenylbenzenepropanamine], for which the plasma prothrombin time amounted to 17 s under setting [2], 31 s under setting [3] and 87 s under setting [1].
Take `CCCCCCOc1ccc(CC(CNC(C)C)c2ccccc2)cc1.Cl` (stereo not drawn) [Example 30, N-Isopropyl-4-(hexyloxy)-β-phenylbenzenepropanamine hydrochloride]: the plasma prothrombin time under setting [1] was 69 s.
Consider `CCCCCCOc1ccc(CC(CNCCN(C)C)c2cc(OC)c(OC)c(OC)c2)cc1.Cl.Cl` (stereo not shown) [Example 31, N'-[3-[4-(Hexyloxy)phenyl]-2-(3,4,5-trimethoxyphenyl)-propyl]-N,N-dimethyl-1,2-ethanediamine dihydrochloride], for which the plasma prothrombin time under setting [1] was determined as 150 s.
As for `Cl.NCC(Cc1ccc2c(c1)OCO2)c1ccc(-c2ccccc2)cc1` (stereo not drawn) [Example 32, β-[1,1'-Biphenyl]-4-yl-1,3-benzodioxole-5-propanamine hydrochloride], the plasma prothrombin time stood at 27 s under setting [2], 66 s under setting [3] and 222 s under setting [1].
On to `CNCC(Cc1ccc2c(c1)OCO2)c1ccccc1.Cl` (stereo not drawn) [Example 33, N-Methyl-β-phenyl-1,3-benzodioxole-5-propanamine hydrochloride], for which the plasma prothrombin time under setting [1] amounted to 18 s.
Consider `Cl.NCC(Cc1ccc2c(c1)OCO2)c1ccccc1` (stereo not drawn) [Example 34, β-Phenyl-1,3-benzodioxole-5-propanamine hydrochloride], for which the plasma prothrombin time under setting [1] was 21 s.
On the same count and under the same terms, as for `NCC(Cc1ccc(C(F)(F)F)cc1)c1ccccc1` (stereo not drawn) [Example 35, β-Phenyl-4-(trifluoromethyl)benzenepropanamine], the figure is 68 s.
Regarding `NC(CCc1ccc(OCC2CCCCC2)cc1)C1CC1` (stereo not drawn) [Example 37, 4-(Cyclohexylmethoxy)-α-cyclopropylbenzenepropanamine hydrochloride], the plasma prothrombin time under setting [5] worked out at 22 s.
Still for that read-out and setting: as for `CCC(CCc1ccc(OCC2CCCCC2)cc1)N(C)C` (stereo not drawn) [Example 38, 4-(Cyclohexylmethoxy)-α-ethyl-N,N-dimethylbenzenepropanamine hydrochloride], the figure is 22 s.
Take `CCCCCCCOc1ccc(CCC(C)NCCN(C)C)cc1` (stereo not shown) [Example 49, N'-[3-[4-(Heptyloxy)phenyl]-1-methylpropyl]-N,N-dimethyl-1,2-ethanediamine dihydrochloride]: the plasma prothrombin time under setting [5] came out at 22 s; the plasma prothrombin time under setting [4] was determined as 34 s; the plasma prothrombin time under setting [2] was determined as 36 s; the plasma prothrombin time under setting [3] was found to be 167 s; the plasma prothrombin time under setting [1] is 260 s.
As to `CCCCCCCCCCOc1ccc(CCC(C)N)cc1` (stereo not drawn) [Example 50, 4-(Decyloxy)-α-methylbenzenepropanamine hydrochloride], the plasma prothrombin time is, setting by setting: under setting [2], 21 s; under setting [3], 36 s; under setting [1], 100 s.
As for `CCCCCCCOc1ccc(CCC(C)N)cc1` (stereo not drawn) [Example 51, 4-(Heptyloxy)-α-methylbenzenepropanamine hydrochloride], the plasma prothrombin time reads like this: under setting [2], 25 s; under setting [3], 52 s; under setting [1], greater than 300 s.
With `CCCCCCCCCCCCOc1ccc(CCC(C)NCCN(C)C)cc1` (stereo not shown) [Example 52, N'-[3-[4-(Dodecyloxy)phenyl]-1-methylpropyl]-N,N-dimethyl-1,2-ethanediaminedihydrochloride], the plasma prothrombin time was found to be 20 s under setting [3] and 87 s under setting [1].
In turn, `CCCCCCCCCOc1ccc(CCC(C)NCCN2CCOCC2)cc1` (stereo not shown) [Example 53, N-[1-Methyl-3-[4-(nonyloxy)phenyl]propyl]-4-morpholineethanamine dihydrochloride] showed a plasma prothrombin time under setting [2] of 23 s, a plasma prothrombin time under setting [3] of 53 s and a plasma prothrombin time under setting [1] of 240 s.
